Converted amounts (≈) assume the structure as drawn.
What was measured:
[1] = system: HepG2; test: Induction of ROS generation in human HepG2 cells at 10 uM using DCFH-DA by fluorescence assay relative to control; format: functional
[2] = Aqueous solubility of the compound in sodium phosphate buffer at pH 6.8 after 90 mins by shake flask method; format: physicochemical
[3] = system: HT-29; test: Induction of ROS generation in human HT-29 cells at 1 uM using DCFH-DA by fluorescence assay relative to control; format: functional
[4] = Antioxidant activity assessed as DPPH radical scavenging activity after 30 mins by spectrophotometric analysis; format: functional
[5] = Induction of ROS generation in CHOK1 cells at 10 uM using DCFH-DA by fluorescence assay relative to control; format: cell-based, Cricetulus griseus; conditions: chinese hamster, cho-k1, 10 µM
[6] = system: EA.hy 926; test: Induction of ROS generation in human EAhy926 cells at 1 uM using DCFH-DA by fluorescence assay relative to control; format: functional
[7] = Cytotoxicity against CHOK1 cells assessed as decrease in cell viability after 48 hrs by MTT assay; format: toxicity, cell-based, Cricetulus griseus; conditions: Chinese hamster, CHO-K1 cells
[8] = Induction of ROS generation in CHOK1 cells at 1 uM using DCFH-DA by fluorescence assay relative to control; format: cell-based, Cricetulus griseus; conditions: chinese hamster, cho-k1, 1 µM
[9] = Aqueous solubility of the compound in sodium phosphate buffer at pH 6.8 after 24 hrs by shake flask method; format: physicochemical
[10] = Cytotoxicity against human Caco2 cells assessed as decrease in cell viability after 48 hrs by MTT assay; format: functional, cell-based; conditions: Caco-2, 48 h
[11] = system: HepG2; test: Induction of ROS generation in human HepG2 cells at 1 uM using DCFH-DA by fluorescence assay relative to control; format: functional
[12] = system: Caco-2; test: Induction of ROS generation in human Caco2 cells at 10 uM using DCFH-DA by fluorescence assay relative to control; format: functional
[13] = Cytotoxicity against human HT-29 cells assessed as decrease in cell viability after 48 hrs by MTT assay; format: functional, cell-based; conditions: HT-29, 48 h
[14] = system: Caco-2; test: Induction of ROS generation in human Caco2 cells at 1 uM using DCFH-DA by fluorescence assay relative to control; format: functional
[15] = system: EA.hy 926; test: Induction of ROS generation in human EAhy926 cells at 10 uM using DCFH-DA by fluorescence assay relative to control; format: functional
[16] = Cytotoxicity against human HepG2 cells assessed as decrease in cell viability after 48 hrs by MTT assay; format: functional, cell-based; conditions: HepG2, 48 h
[17] = system: HT-29; test: Induction of ROS generation in human HT-29 cells at 10 uM using DCFH-DA by fluorescence assay relative to control; format: functional
[18] = Chemical stability of the compound sodium phosphate buffer at pH 6.8 after 24 hrs by LC-MS analysis; format: physicochemical; conditions: pH 6.8, 24 h
[19] = Cytotoxicity against human EAhy926 cells assessed as decrease in cell viability after 48 hrs by MTT assay; format: toxicity, cell-based, EA.hy 926; conditions: EA.hy926 cells
[20] = Solubility of the compound in acetone; format: physicochemical
[21] = Solubility of the compound in dimethylformamide; format: physicochemical
[22] = Solubility of the compound in ethyl acetate; format: physicochemical
[23] = Solubility of the compound in ethanol; format: physicochemical
[24] = Solubility of the compound in methanol; format: physicochemical
[25] = Solubility of the compound in dimethyl sulfoxide; format: physicochemical
[26] = Solubility of the compound in 2-methyl-THF; format: physicochemical

solubility thermodynamic at 1.5 h [2] [µM]	EC50 [4] [µM]	Activity [5] [%]	Activity [8] [%]	solubility thermodynamic at 24 h [9] [µM]	Stability [18]	solubility [20]	Compound	Activity [1] [%]	Activity [3] [%]	Activity [6] [%]	IC50 at 48 h [7] [µM]	IC50 [10] [µM]	Activity [11] [%]	Activity [12] [%]	IC50 [13] [µM]	Activity [14] [%]	Activity [15] [%]	IC50 [16] [µM]	Activity [17] [%]	IC50 at 48 h [19] [µM]	also measured
58.9 (≈ 25.1 µg/mL)	33.9	80.3	91.8	62.9 (≈ 26.8 µg/mL)	Stable	–	COc1cc(/C=C/C2=CC(=O)CC(c3ccc(O)c(OC)c3)N2CCCO)ccc1O (configuration not stated)	96.3	98.1	122	> 100	88	95.2	91	> 100	95.6	123.5	> 100	96.5	> 100	–
137 (≈ 49.9 µg/mL)	154	80.5	86.4	128 (≈ 46.9 µg/mL)	Stable	Insoluble	O=C(/C=C(/C=C/c1ccc(O)cc1)NCCCO)/C=C/c1ccc(O)cc1	88.7	92.5	93.3	39.1	31.6	91.3	91.7	58.9	94.1	109.9	54.1	96.9	57.3	solubility [21]: Soluble; solubility [22]: Insoluble; solubility [23]: Soluble; solubility [24]: Soluble; solubility [25]: Soluble; solubility [26]: Insoluble
25.8 (≈ 9.8 µg/mL)	> 200	91.7	97.8	38.8 (≈ 14.7 µg/mL)	Stable	–	COCCCN1C(/C=C/c2ccc(O)cc2)=CC(=O)CC1c1ccc(O)cc1 (configuration not stated)	96.2	90.5	116.4	> 100	> 100	93.2	99.4	> 100	99	118.6	> 100	74.7	> 100	–
1.51 (≈ 0.556 µg/mL)	31.5	101	103.9	1.25 (≈ 0.46 µg/mL)	Stable	–	COc1cc(/C=C/C(=O)CC(=O)/C=C/c2ccc(O)c(OC)c2)ccc1O [CURCUMIN]	99.1	97.3	105.5	42	38.3	93.7	94.8	51.7	89.1	98.8	72.7	87.3	24.6	–
3.18 (≈ 0.98 µg/mL)	> 200	107.9	104.6	4.3 (≈ 1.33 µg/mL)	Stable	–	O=C(/C=C/c1ccc(O)cc1)CC(=O)/C=C/c1ccc(O)cc1 [BISDEMETHOXYCURCUMIN]	69.4	101.1	95.8	91.4	> 100	88.8	88.8	> 100	100.1	104.6	> 100	95.4	54.3	–
–	29.6	–	–	–	–	–	Cc1c(C)c2c(c(C)c1O)CCC(C)(C(=O)O)O2 (configuration not stated) [TROLOX]	–	–	–	–	–	–	–	–	–	–	–	–	–	–
10.4 (≈ 3.97 µg/mL)	130	97	99.8	14.8 (≈ 5.63 µg/mL)	Stable	Insoluble	COCCCNC(=C\C(=O)/C=C/c1ccc(O)cc1)/C=C/c1ccc(O)cc1	71.6	98	107.6	44.9	24	79.5	89	51.9	97	98.7	61.9	95.7	81.9	solubility [21]: Soluble; solubility [22]: Insoluble; solubility [23]: Soluble; solubility [24]: Soluble; solubility [25]: Soluble; solubility [26]: Insoluble
7.7 (≈ 3.38 µg/mL)	29.5	81.2	98.3	9.66 (≈ 4.25 µg/mL)	Stable	Insoluble	COCCCNC(=C\C(=O)/C=C/c1ccc(O)c(OC)c1)/C=C/c1ccc(O)c(OC)c1	77.5	99.5	91.5	53.7	49.1	68.5	84.8	72.2	97.9	89.9	> 100	95	> 100	solubility [21]: Soluble; solubility [22]: Insoluble; solubility [23]: Soluble; solubility [24]: Soluble; solubility [25]: Soluble; solubility [26]: Insoluble
25.4 (≈ 10.8 µg/mL)	27.6	89.9	90.4	56.3 (≈ 24 µg/mL)	Stable	Insoluble	COc1cc(/C=C/C(=O)/C=C(/C=C/c2ccc(O)c(OC)c2)NCCCO)ccc1O	101.5	98.8	114.3	88.5	75.7	90	91	> 100	93.4	102.2	> 100	98.8	> 100	solubility [21]: Soluble; solubility [22]: Insoluble; solubility [23]: Soluble; solubility [24]: Soluble; solubility [25]: Soluble; solubility [26]: Insoluble
8.14 (≈ 3.35 µg/mL)	28.3	90.9	93.5	11.8 (≈ 4.85 µg/mL)	Stable	Insoluble	COc1cc(/C=C/C(=O)/C=C(/C=C/c2ccc(O)c(OC)c2)NCCO)ccc1O	91.2	95.8	113.3	87.5	87.2	86.3	96.6	> 100	103.4	102.4	> 100	102.7	> 100	solubility [21]: Soluble; solubility [22]: Insoluble; solubility [23]: Soluble; solubility [24]: Soluble; solubility [25]: Soluble; solubility [26]: Insoluble
37.5 (≈ 13.7 µg/mL)	> 200	75.1	82.5	46.1 (≈ 16.8 µg/mL)	Stable	Insoluble	COCCNC(=C\C(=O)/C=C/c1ccc(O)cc1)/C=C/c1ccc(O)cc1	77.9	97	130.3	34.9	28	76.4	89.7	57.4	94.9	134.2	63.3	96.8	45.1	solubility [21]: Soluble; solubility [22]: Insoluble; solubility [23]: Soluble; solubility [24]: Soluble; solubility [25]: Soluble; solubility [26]: Insoluble
29.2 (≈ 10.3 µg/mL)	49.4	87.6	99.4	29.9 (≈ 10.5 µg/mL)	Stable	–	O=C1C=C(/C=C/c2ccc(O)cc2)N(CCO)C(c2ccc(O)cc2)C1 (configuration not stated)	100.1	100.8	106.9	> 100	> 100	105.4	91.5	> 100	95.3	101.4	> 100	98.8	> 100	–
